The text below walks through data of article PMC11407620, “Repurposing auranofin and meclofenamic acid as energy-metabolism inhibitors and anti-cancer drugs” (PLOS ONE, 2024).

One experiment has as its system Breast MDA-MB-231 cells. Nature of the experiment: Cell proliferation, 24 h drug exposure. The class given is cell-based, human. The following applies: Breast MDA-MB-231, 24 h, read-out: IC50 for proliferation cell rate. Here is the method: (§1) All metastatic (breast MDA-MB231, MDA-MB468, cervix HeLa, prostate PC3, colorectal HCT116, COLO205, glioblastoma U373), low-metastatic (breast MCF-7) cancer and non-cancer (fibroblast 3T3, cardiomyocytes H9C2) cell lines (American Type Culture Collection, Rockville, MD, USA) used in this study were cultured in Petri dishes in 20 mL of Dulbecco’s Modified Eagle’s Medium (DMEM, Sigma, MO, USA) supplemented with 10% fetal bovine serum (Biowest, Mexico) and 10,000 U penicillin/streptomycin (Sigma-Aldrich, MO, USA). […] For growth and maintenance, cells were incubated in 5% CO2/95% air at 37°C and kept until 80–90% of confluence was reached. Then, cells were harvested, washed by centrifugation and resuspended in Krebs-Ringer buffer (KR, 125 mM NaCl, 5 mM KCl, 25 mM Hepes, 1 mM MgCl2, 1 mM KH2PO4, 1.4 mM CaCl2, pH 7.4) for further use. For experimentation, cancer cells (3–5 x 10^6 cells) were cultured in DMEM (with 25 mM glucose) for 24 h in the absence of drugs. Afterwards, old-medium was replaced with fresh DMEM medium (with 25 mM glucose) in the absence (control, non-treated cells) or in the presence of logarithmic concentrations of Aur and MA for 24 h more, under the same culture conditions described above. Viability of cultured cells was determined by the trypan blue exclusion assay. The protein concentration was determined by the Lowry method.
(§2) For cell proliferation in the presence of drugs, cancer cells (20 x 10^3 cells/well) were grown in 96-well plates containing DMEM (Sigma-Aldrich) plus 10% bovine fetal serum for 24 h. Afterwards, Aur or MA (0.01, 0.1, 10 and 100 μM) were added to the cell cultures and incubated for additional 24 h. The effect of these drugs on cell proliferation was determined in 96-well plates by the MTT (3-[4,5-dimethyl-thiazol-2-yl]-2,5-diphenyltetrazolium bromide) assay. The viability of cancer cells was > 95% after treatment with drugs.

For another experiment, the system named is HeLa cells. The arrangement: method as in PMID 33333716. The note with it: CP alone at doses of Table 5; cited from earlier work.
The test system of the next experiment is Cervix HeLa cells. Nature of the experiment: Cell proliferation, 24 h drug exposure. In kind it is cell-based, human. The note with it: Cervix HeLa, 24 h, read-out: IC50 for proliferation cell rate. As for the experimental part: as §1
(§3) For cell proliferation in the presence of drugs, cancer cells (20 x 10^3 cells/well) were grown in 96-well plates containing DMEM (Sigma-Aldrich) plus 10% bovine fetal serum for 24 h. […] The effect of these drugs on cell proliferation was determined in 96-well plates by the MTT (3-[4,5-dimethyl-thiazol-2-yl]-2,5-diphenyltetrazolium bromide) assay. The viability of cancer cells was > 95% after treatment with drugs.

For the next experiment, the system named is Glioblastoma U373 cells. The experiment can be described thus: Cell proliferation, 24 h drug exposure. The note with it: Glioblastoma U373, 24 h, read-out: IC50 for proliferation cell rate. The class given is cell-based, human. As for the experimental part: as §1, §3
The next experiment concerns Breast MCF-7 cells. The experiment can be described thus: Cell proliferation, 24 h drug exposure. In kind it is cell-based, human. The note with it: Homo sapiens, MCF7; Breast MCF-7 (low metastatic); 24 h; read-out: IC50 for proliferation cell rate. As for the experimental part: as §1, §2
For the next experiment, the system named is Colorectal HCT116 cells. Nature of the experiment: Cell proliferation, 24 h drug exposure. The following applies: Homo sapiens, HCT-116; Colorectal HCT116; 24 h; read-out: IC50 for proliferation cell rate. In kind it is cell-based, human. As for the experimental part: as §1, §2
The next experiment deals with Breast MDA-MB-468 cells. Nature of the experiment: Cell proliferation, 24 h drug exposure. The class given is cell-based, human. The note with it: Homo sapiens; Breast MDA-MB-468; 24 h; read-out: IC50 for proliferation cell rate. Here is the method: as §1, §2
The next experiment deals with Colorectal COLO205 cells. The experiment can be described thus: Cell proliferation, 24 h drug exposure. The class given is cell-based, human. The following applies: Homo sapiens, COLO 205; Colorectal COLO205; 24 h; read-out: IC50 for proliferation cell rate. Here is the method: as §1, §2
The next experiment concerns non-cancer cells. The experiment can be described thus: Non-cancer cell proliferation, pooled. The note with it: Mus musculus, 24 h, read-out: IC50 values for non-cancer cells (range). In kind it is cell-based. As for the experimental part: as §1, with “For experimentation, cancer cells (3–5 x 10^6 cells) were cultured in DMEM (with 25 mM glucose) for 24 h in the absence of drugs. Afterwards, old-medium was replaced with fresh DMEM medium (with 25 mM glucose) in the absence (control, non-treated cells) or in the presence of logarithmic concentrations of Aur and MA for 24 h more, under the same culture conditions described above.” left out
For cell proliferation in the presence of drugs, cancer cells (20 x 10^3 cells/well) were grown in 96-well plates containing DMEM (Sigma-Aldrich) plus 10% bovine fetal serum for 24 h. […] The effect of these drugs on cell proliferation was determined in 96-well plates by the MTT (3-[4,5-dimethyl-thiazol-2-yl]-2,5-diphenyltetrazolium bromide) assay. […]

Experiment [1] concerns MDA-MB-231 and MDA-MB-468 cells. The experiment can be described thus: Cell migration, wound healing assay. The following applies: Homo sapiens; 15 μM perhexiline. In kind it is cell-based. Here is the method: The wound healing assay was performed for cell migration detection. In petri dishes with full DMEM, cancer cells (5 x 10^6 cells/well) were cultured at 37°C under 95% air and 5% CO2 until 80–90% confluence was attained. Afterwards, cell culture was wounded with a 1 mL pipette tip, washed twice with PBS (155 mM NaCl, 1.5 mM KH2PO4, 2.7 mM NaH2PO4, pH 7.2) and subsequently incubated at 37°C with fresh non-serum DMEM. Cellular migration images were taken in an inverted microscope (Zeiss, Thornwood, NY, USA) after 0 and 24 h incubation time. Using a graduated reticule (Zeiss, Thornwood, NY, USA), cellular migration was assessed from the petri dish’s border to its center distance travelled.
S2 Figure. Migratory capacity in metastatic triple negative breast cancer cells exposed to perhexiline. n=3; *P < 0.05 vs. Control (Non-treated cells)

The next experiment concerns cancer cell lines. Nature of the experiment: Cancer cell proliferation, pooled over the cell lines of Table 1. The class given is cell-based, human. The following applies: for IC50: Homo sapiens, cancer cells, 24 h, read-out: IC50 values on cancer cell proliferation (range over cell lines). As for the experimental part:
as §1, §3

In experiment [2] the test system is HeLa, U373, HCT116, MDA-MB-231 and MDA-MB-468 cells. Nature of the experiment: Cell invasiveness, Boyden chamber. In kind it is cell-based, human. The note with it: perhexiline 4–20 μM; 24 h. As for the experimental part: The 96-multiwell Boyden chambers (Merck Millipore, MA, USA) assay was performed for cellular invasiveness detection. Cancer cells (5 × 10^4 cells/well) were re-suspended in free-serum DMEM and placed in the upper Boyden chamber compartment. Free-serum DMEM was also placed in the lower compartment of the chamber. Afterwards, the Boyden chamber was placed at 37°C and 95% air/5% CO2 for 24 h. Invasive cancer cells within the lower chamber compartment were detected by using the calcein-AM (60 nM, 1 h) assay at 37°C. Calcein-fluorescence was measured at λexcitation = 485 nm and λemission = 520 nm in a Nunclon microplate reader (Roskilde, Denmark).
S1 Figure. Cancer invasiveness assay in metastatic cancer cells exposed to MA (A) and perhexiline (B) for 24 h. All cancer cell invasiveness was compared with MDA-MB-231 cells, which are cancer cells with the highest invasiveness ability. n=3; *P < 0.05 vs. MDA-MB-231 non-treated cells.

A further experiment concerns 3T3 mouse fibroblasts. The experiment can be described thus: Cell proliferation, 24 h drug exposure (non cancer cells). In kind it is cell-based. The following applies: Fibroblast, 3T3 mouse fibroblasts (non cancer), read-out: IC50 for proliferation cell rate. As for the experimental part: as §1, §2
Experiment [3] concerns H9C2 mouse cardiomyocytes. Described as above. In kind it is cell-based. The following applies: read-out: IC50 for proliferation cell rate. Here is the method: as §1, §2
For experiment [4], the system named is HeLa, MDA MB-231, and A548 (lung cancer) cells. Nature of the experiment: Oxygen consumption of cancer cells. The class given is cell-based. The following applies: Homo sapiens, MDA MB-231, A548 cells. As for the experimental part:
For oxidative phosphorylation (OxPhos) flux, cells (2–5 mg protein/mL) were incubated at 37°C in air saturated KR medium plus 5 mM glucose. To distinguish the oxygen consumption associated to OxPhos, the cells were incubated with 5 μM oligomycin (Sigma-Aldrich, MO, USA), a potent, specific, and permeable inhibitor of the mitochondrial ATP synthase. The net OxPhos rate was determined by using a Clark type electrode, as previously described and by using a high-resolution respirometer (Oroboros Instruments, Innsbruck, Austria) at 37°C. The contribution of OxPhos and glycolysis to the cellular ATP supply was determined, respectively, from the net OxPhos rate (oligomycin-sensitive respiration) multiplied by the ATP/O or P»/O2 ratio that corresponds to 2.5 or 5, and from the rate of lactate production, assuming a stoichiometry of 1 mol of ATP produced per 1 mol of lactate produced.

For a further experiment, the system named is Prostate PC3 cells. The experiment can be described thus: Cell proliferation, 24 h drug exposure. In kind it is cell-based, human. The note with it: Homo sapiens, PC-3; Prostate PC3; 24 h; read-out: IC50 for proliferation cell rate. As for the experimental part: as §1, §2

Where two headings read alike, the source gives them in different places.

Consider `N.N.[Cl][Pt][Cl]` [CP, cisplatin], for which the IC50 in the experiment with Breast MDA-MB-231 cells was 72 µM; with Cervix HeLa cells, more than 1000 µM; with Glioblastoma U373 cells, more than 1000 µM. Further, the “effect on proliferation rate, OxPhos, cellular invasiveness” value in the experiment with HeLa cells is reported as “no effect”.

`C1CCC(C(CC2CCCCN2)C2CCCCC2)CC1` (stereo not drawn) [Perhexiline]: the IC50 in the experiment with Breast MCF-7 cells is 20.5 ± 10 µM; in the experiment on Colorectal HCT116 cells, 16 ± 7 µM; with Breast MDA-MB-468 cells, 15 ± 0.8 µM; in the experiment on Colorectal COLO205 cells, 16 ± 5 µM; in the experiment with Breast MDA-MB-231 cells (Homo sapiens), 11 ± 0.6 µM; in the experiment with non-cancer cells, 30 to 100 µM. Besides, the IC50 in the experiment on cancer cell lines is 4 to 20 µM; in the experiment with Cervix HeLa cells (Homo sapiens), 4 ± 3 µM; with Glioblastoma U373 cells (Homo sapiens, U373 MG) it was 18.5 ± 2 µM; in the experiment with 3T3 mouse fibroblasts, 81.5 ± 8 µM; in experiment [3], more than 100 µM. Further, the inhibition at 15 µM in [1] fell in the range of 50 to 60%. Besides, the “inhibition of cell invasiveness” value in experiment [2] was 37–53%. In experiment [4], this molecule displayed an inhibition at 10 µM of 36 to 70%.

For `CCC(C)(C)C(=O)O[C@H]1C[C@@H](C)C=C2C=C[C@H](C)[C@H](CC[C@@H]3C[C@@H](O)CC(=O)O3)[C@H]21` [Simvastatin], the IC50 with Breast MCF-7 cells is 126 ± 65 µM; in the experiment with Colorectal HCT116 cells it was 147 ± 58 µM; in the experiment on Prostate PC3 cells, 31 ± 16 µM; in the experiment on Breast MDA-MB-231 cells (Homo sapiens), 111 ± 45 µM; in the experiment on non-cancer cells it was 100 to 222 µM; in the experiment with cancer cell lines, 31 to 147 µM. For the same molecule, the IC50 turned out to be 31 ± 13 µM in the experiment with Cervix HeLa cells (Homo sapiens); 131 ± 41 µM in the experiment on Glioblastoma U373 cells (Homo sapiens, U373 MG); 222 ± 60 µM in the experiment on 3T3 mouse fibroblasts; 100 ± 32 µM in experiment [3].

For `CC1=C(CC(=O)O)c2cc(F)ccc2/C1=C\c1ccc([S+](C)[O-])cc1` (stereo not drawn) [Sulindac], the IC50 was more than 500 µM with Breast MCF-7 cells; more than 500 µM in the experiment on Colorectal HCT116 cells; 463 µM in the experiment on Breast MDA-MB-231 cells (Homo sapiens); more than 500 µM in the experiment with Cervix HeLa cells (Homo sapiens); more than 500 µM in the experiment on Glioblastoma U373 cells (Homo sapiens, U373 MG); more than 500 µM in the experiment on 3T3 mouse fibroblasts. In experiment [3], the IC50 is more than 500 µM. Further, the “effect on cancer cell proliferation” value in the experiment on cancer cell lines (up to 500 μM, 24 h incubation) is given as “not significantly affected”.
